Each structure is given as a SMILES string.

The target in the first test is T1, human orexin-1 receptor (Homo sapiens, UniProt O43613).
T1 construct: expressed in transfected cells; host or cells: CHO cells (G418 selection)
T1 sequence (O43613 1-425): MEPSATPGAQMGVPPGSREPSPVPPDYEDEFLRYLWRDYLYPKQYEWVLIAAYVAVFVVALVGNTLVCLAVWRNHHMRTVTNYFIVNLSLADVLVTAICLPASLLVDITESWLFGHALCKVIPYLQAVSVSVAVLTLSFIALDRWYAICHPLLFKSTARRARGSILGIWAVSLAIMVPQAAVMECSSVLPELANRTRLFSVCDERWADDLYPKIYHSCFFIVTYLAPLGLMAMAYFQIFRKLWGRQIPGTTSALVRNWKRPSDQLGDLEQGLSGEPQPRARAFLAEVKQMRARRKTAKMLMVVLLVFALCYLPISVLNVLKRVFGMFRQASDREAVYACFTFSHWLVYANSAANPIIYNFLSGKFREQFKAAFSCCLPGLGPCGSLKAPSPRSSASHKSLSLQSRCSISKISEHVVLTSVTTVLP
The test is described as follows: Intracellular calcium (FLIPR) antagonist assay, CHO cells expressing human orexin-1 receptor, 3 nM orexin-A. It counts as cell-based. The settings on record: 1 uM compound, orexin-A 3 nM. The procedure:
(§1) Antagonistic activities on both orexin receptors (i.e., to identify Orexin Receptor Antagonists) have been measured for each example compound using the in vitro assays (intracellular calcium measurements) as described herein. Other assays may also be used to identify Orexin Receptor Antagonists as would be understood by those of ordinary skill in the art. Chinese hamster ovary (CHO) cells expressing the human orexin-1 receptor and the human orexin-2 receptor, respectively, are grown in culture medium (Ham F-12 with L-Glutamine) containing 300 μg/mL G418, 100 U/mL penicillin, 100 μg/mL streptomycin and 10% heat inactivated fetal calf serum (FCS). The cells are seeded at 20′000 cells/well into 384-well black clear bottom sterile plates (Greiner). The seeded plates are incubated overnight at 37° C. in 5% CO2. Human orexin-A as an agonist is prepared as 1 mM stock solution in MeOH: water (1:1), diluted in HBSS containing 0.1% bovine serum albumin (BSA), NaHC03: 0.375 g/L and 20 mM HEPES for use in the assay at a final concentration of 3 nM.
(§2) Antagonists were prepared as 10 mM stock solution in DMSO, then diluted in 384-well plates using DMSO followed by a transfer of the dilutions into in HBSS containing 0.1% bovine serum albumin (BSA), NaHC03: 0.375 g/L and 20 mM HEPES. On the day of the assay, 50 μL of staining buffer (HBSS containing 1% FCS, 20 mM HEPES, NaHC03: 0.375 g/L, 5 mM probenecid (Sigma) and 3 μM of the fluorescent calcium indicator fluro-4 AM (1 mM stock solution in DMSO, containing 10% pluronic) is added to each well. The 384-well cell-plates are incubated for 50 min at 37° C. in 5% C02 followed by equilibration at RT for 30 min before measurement. Within the Fluorescent Imaging Plate Reader (FLIPR Tetra, Molecular Devices), potential Orexin Receptor Antagonists were added to the plate in a volume of 10 μl/well, incubated for 120 min and finally 10 μL/well of agonist is added. Fluorescence was measured for each well at 1 second intervals, and the height of each fluorescence peak compared to the height of the fluorescence peak induced by 3 nM orexin-A with vehicle in place of antagonist. The IC50 value (the concentration of compound needed to inhibit 50% of the agonistic response) was determined and normalized using the obtained IC50 value of an on-plate reference compound. Optimized conditions were achieved by adjustment of pipetting speed and cell splitting regime. The calculated IC50 values fluctuate depending on the daily cellular assay performance, as is known to those skilled in the art. In the case where IC50 values have been determined several times for the same compound, the geometric mean has been given.
On to `Cc1cc(C)nc(N2CC3CN(C(=O)c4c(-c5ccc(F)cc5)nn5c4COCC5)CC3C2)n1` (stereo not shown) [Example 40], for which the “OXIR % Inh. @ 1 uM” value is on record as 11.58%.
Take `C[C@@H]1CCN(c2cnc(C(F)(F)F)cn2)CCN1C(=O)c1c(-c2ccccn2)nn2ccccc12` [Example 95]: the “OXIR % Inh. @ 1 uM” value was determined as 86%.

The test is the same for the next values; noted with them: CHO, 1 uM compound, orexin-A 3 nM, read-out: OXIR % Inh. @ 1 uM.
As for `Cc1cc(C)nc(N2CC3CN(C(=O)c4c(-c5ccccc5F)nn5c4COCC5)CC3C2)n1` (stereo not shown) [Example 49], the inhibition at 1 µM is -5.54%.
Turning to `Cc1cc(C)nc(N2CC[C@@H](C)N(C(=O)c3nn4ccccc4c3-c3ccccc3)CC2)n1` [Example 71], the inhibition at 1 µM was determined as 75%.
On to `Cc1cc(C)nc(N2CC3CN(C(=O)c4nn5ccccc5c4-c4ccccc4F)CC3C2)n1` (stereo not shown) [Example 34], for which the inhibition at 1 µM was 2.36%.
With `C[C@@H]1CCN(c2cnc(C(F)(F)F)cn2)CCN1C(=O)c1nn2cccnc2c1-c1ccccn1` [Example 98], the inhibition at 1 µM is 57%.
Same read-out and setting: the figure for `Cc1cc(C)nc(N2CC[C@@H](C)N(C(=O)c3c(-c4ccccc4)nc4ccccn34)CC2)n1` [Example 73] is 65%; for `C[C@@H]1CCN(c2ccc(C(F)(F)F)cn2)CCN1C(=O)c1nn2cccnc2c1-c1ccccn1` [Example 97] it is 98%.
Consider `C[C@@H]1CCN(c2ccc(C(F)(F)F)cn2)CCN1C(=O)c1c(-c2ncccn2)nn2ccccc12` [Example 62], for which the inhibition at 1 µM was 100%.
Regarding `C[C@@H]1CCN(c2ccc(C(F)(F)F)cn2)CCN1C(=O)c1c(-c2ccccn2)nn2ccccc12` [Example 64], the inhibition at 1 µM was 100%.
Regarding `Cc1cc(C)nc(N2CC3CN(C(=O)c4c(-c5ccccc5)nc5ccc(F)cn45)CC3C2)n1` (stereo not shown) [Example 26], the inhibition at 1 µM was 1.61%.
In the case of `C[C@@H]1CCN(c2nc3cc(Cl)ccc3o2)CCN1C(=O)c1c(-c2ccccc2)nc2ccccn12` [Example 5], the inhibition at 1 µM amounted to 98.5%.
On to `COc1ccc(N2CC[C@@H](C)N(C(=O)c3c(-c4ccccc4)nn4c3COCC4)CC2)nc1` [Example 12], for which the inhibition at 1 µM was determined as 14.7%.
As for `C[C@@H]1CCN(c2nc3cc(Cl)ccc3o2)CCN1C(=O)c1ccnn1-c1ccccc1` [Example 100], the inhibition at 1 µM was 54%.
Turning to `Cc1cc(C)nc(N2CC3CN(C(=O)C4C(c5ccccc5)=NN5C=CC=CC45)CC3C2)n1` (stereo not shown) [Example 42], the inhibition at 1 µM turned out to be 40.4%.
On the same count and under the same terms, then `Cc1cc(C)nc(N2CC3CN(C(=O)c4nc5ccccn5c4-c4ccc(F)cc4)CC3C2)n1` (stereo not shown) [Example 31], with 8.04%; and `Cc1cc(C)nc(N2CC[C@@H](C)N(C(=O)c3c(-c4ccccc4F)nn4ccccc34)CC2)n1` [Example 54], with 91.9%.

For the next test, the target named is T2, human orexin-2 receptor (Homo sapiens, UniProt O43614).
T2 construct: expressed in transfected cells; host or cells: CHO cells (G418 selection)
T2 sequence (O43614 1-444): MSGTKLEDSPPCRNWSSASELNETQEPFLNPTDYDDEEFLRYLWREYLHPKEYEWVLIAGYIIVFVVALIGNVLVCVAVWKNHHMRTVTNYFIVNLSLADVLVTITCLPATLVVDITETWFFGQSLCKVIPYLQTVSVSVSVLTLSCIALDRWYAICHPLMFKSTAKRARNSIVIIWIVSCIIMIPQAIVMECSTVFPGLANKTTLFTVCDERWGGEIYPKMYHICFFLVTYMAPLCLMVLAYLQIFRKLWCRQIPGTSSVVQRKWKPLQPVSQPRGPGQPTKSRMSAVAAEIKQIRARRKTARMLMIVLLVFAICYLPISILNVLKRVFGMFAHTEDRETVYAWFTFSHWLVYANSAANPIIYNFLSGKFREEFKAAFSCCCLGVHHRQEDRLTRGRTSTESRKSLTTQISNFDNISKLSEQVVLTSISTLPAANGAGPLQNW
The test is described as follows: Intracellular calcium (FLIPR) antagonist assay, CHO cells expressing human orexin-2 receptor, 3 nM orexin-A. It counts as cell-based. The settings on record: 1 uM compound, orexin-A 3 nM. The procedure: as §1, §2
Turning to `Cc1cc(C)nc(N2CC3CN(C(=O)c4c(-c5ccc(F)cc5)nn5c4COCC5)CC3C2)n1` (stereo not shown) [Example 40], the “OX2R % Inh. @ 1uM” value is 7.18%.
Still for that read-out and setting: the figure for `C[C@@H]1CCN(c2cnc(C(F)(F)F)cn2)CCN1C(=O)c1c(-c2ccccn2)nn2ccccc12` [Example 95] is 61%.

Still in this test, the particulars now being: CHO, 1 uM compound, orexin-A 3 nM, read-out: OX2R % Inh. @ 1uM.
Consider `Cc1cc(C)nc(N2CC3CN(C(=O)c4c(-c5ccccc5F)nn5c4COCC5)CC3C2)n1` (stereo not shown) [Example 49], for which the inhibition at 1 µM turned out to be 12.8%.
`Cc1cc(C)nc(N2CC[C@@H](C)N(C(=O)c3nn4ccccc4c3-c3ccccc3)CC2)n1` [Example 71]: the inhibition at 1 µM amounted to 96%.
As for `Cc1cc(C)nc(N2CC3CN(C(=O)c4nn5ccccc5c4-c4ccccc4F)CC3C2)n1` (stereo not shown) [Example 34], the inhibition at 1 µM worked out at 31.4%.
On the same count and under the same terms, then `C[C@@H]1CCN(c2cnc(C(F)(F)F)cn2)CCN1C(=O)c1nn2cccnc2c1-c1ccccn1` [Example 98], with 26%.
The same measure, in the same setting: the figure for `Cc1cc(C)nc(N2CC[C@@H](C)N(C(=O)c3c(-c4ccccc4)nc4ccccn34)CC2)n1` [Example 73] is 95%; for `C[C@@H]1CCN(c2ccc(C(F)(F)F)cn2)CCN1C(=O)c1nn2cccnc2c1-c1ccccn1` [Example 97] it is 51%; for `C[C@@H]1CCN(c2ccc(C(F)(F)F)cn2)CCN1C(=O)c1c(-c2ncccn2)nn2ccccc12` [Example 62] it is 44%.
On the same count and under the same terms, the figure for `C[C@@H]1CCN(c2ccc(C(F)(F)F)cn2)CCN1C(=O)c1c(-c2ccccn2)nn2ccccc12` [Example 64] is 85%.
For the compound `Cc1cc(C)nc(N2CC3CN(C(=O)c4c(-c5ccccc5)nc5ccc(F)cn45)CC3C2)n1` (stereo not shown) [Example 26], the inhibition at 1 µM amounted to 33.8%.
As for `C[C@@H]1CCN(c2nc3cc(Cl)ccc3o2)CCN1C(=O)c1c(-c2ccccc2)nc2ccccn12` [Example 5], the inhibition at 1 µM came out at 94.5%.
Turning to `COc1ccc(N2CC[C@@H](C)N(C(=O)c3c(-c4ccccc4)nn4c3COCC4)CC2)nc1` [Example 12], the inhibition at 1 µM came out at 25%.
Still for that read-out and setting: then `C[C@@H]1CCN(c2nc3cc(Cl)ccc3o2)CCN1C(=O)c1ccnn1-c1ccccc1` [Example 100], with 57%.
As for `Cc1cc(C)nc(N2CC3CN(C(=O)C4C(c5ccccc5)=NN5C=CC=CC45)CC3C2)n1` (stereo not shown) [Example 42], the inhibition at 1 µM was found to be 68%.
Regarding `Cc1cc(C)nc(N2CC3CN(C(=O)c4nc5ccccn5c4-c4ccc(F)cc4)CC3C2)n1` (stereo not shown) [Example 31], the inhibition at 1 µM came out at 3.74%.
`Cc1cc(C)nc(N2CC[C@@H](C)N(C(=O)c3c(-c4ccccc4F)nn4ccccc34)CC2)n1` [Example 54]: the inhibition at 1 µM was found to be 99.7%.
